Like-named read-outs stand apart in the source and are kept apart here. Peptide text beside a SMILES is read from it.
How the values were obtained:
MDA-MB-231 cells [1] = format: cell-based, human; conditions: MTS; for MDA-MB-231 cell viability: 5 µM, mean n = 3
Procedure: (§1) The incubation was continued for 3 h.

SK-OV-3 cells [2] = format: cell-based, human; conditions: 5 µM, 72 h, MTS, mean n = 3
Procedure: as §1

[3] = test system: K562/ADR (human erythroleukemic cells); parameters: method as in PMID 11261883; conditions: resistant K562/ADR cells; cited from earlier work
Excerpt: Different linear CPPs such as penetratin [15], TAT [18], polyarginine, and maurocalcine have been conjugated with Dox.

MCF-7 cells = assay: In vitro cytotoxicity (MTS) assay in MCF-7 cells; format: cell-based, human; conditions: for reduction of MCF-7 cell proliferation: mean n = 3
Procedure: as §1

H9C2 cells = assay: Confocal microscopy uptake in H9C2 heart cells; format: cell-based, rat; conditions: H9C2, 5 µM (mixture: Dox 5 µM with [WR]9 5 or 10 µM), 24 h
Procedure: (§2) MDA-MB-231, SK-OV-3, MES-SA/MX2, and H9C2 cells (7 × 10^4 cells/well) were seeded with a medium on a coverslip 24 h prior to the experiment in six well plates. After 24 h, the medium was changed with opti-MEM. The cells were treated with Dox and peptide-Dox conjugate (5 μM) in opti-MEM for 24 h. After 24 h incubation, the media were removed, and cells were washed three times with PBS in each well. Then, the cells were fixed with 3.7% formaldehyde for 10 min, followed by washing three times with PBS for 5 min (pH 7.6). DAPI (40 µL) for staining the nuclei was placed on a microscope slide, and it was covered with the coverslip with the cell-attached side facing down. The slides were left standing horizontally in a dark place with airflow to allow drying faster. The cells were photographed using Nikon Instruments A1 Confocal Laser Microscope Series (Nikon Instruments Inc, NY, USA) and NIS-Elements software (AR 4.30.02, 64 bit). The scan mode was selected as Galvano. The magnification and resolution were set at 40× and 1024, respectively.

MES-SA/MX2 cells [4] = assay: In vitro cytotoxicity (MTS) assay in Dox-resistant MES-SA/MX2 cells; format: cell-based
Procedure: as §1

CCRF-CEM cells = conditions: conjugate 5 μM for 4 h at 37 °C, then drug-free medium, HPLC AUC
Procedure: Intracellular hydrolysis of [(WR)8WKβA]-Dox and accumulation of free Dox and the peptide–Dox conjugate were determined in CCRF-CEM cells by HPLC analysis. Cells were grown with serum-free RPMI medium in 75 cm^2 culture flasks to ∼70–80% confluence (1.37 × 10^7 cells/mL). The medium was first replaced with fresh RPMI medium having [(WR)8WKβA]-Dox conjugate (5 μM). Then the cells were incubated for 4 h at 37 °C. After 4 h, the medium containing the conjugate was aspirated, and cells were washed three times with PBS before adding a fresh serum-free medium. The cells were first partitioned/transferred to culture plates (six wells) contained 1.37 × 10^7 cells per well in 5 mL of medium, then incubated for the indicated time. After incubation, the cells were collected using centrifugation. After centrifugation, the medium was removed by decantation. The cell pellets were washed with ice-cold PBS to remove any remaining medium. The cell pellets were then completely extracted with an equal volume of methanol, chloroform, and isopropanol mixture (4:3:1 v/v/v) and finally filtered through 0.2 μm filters. The relative amount of Dox and [(WR)8WKβA]-Dox concentrations in cell lysates were quantified by analytical HPLC using the water/acetonitrile solvent.

MES-SA/MX2 cells [5] = assay: FACS cellular uptake with endocytosis inhibitors in MES-SA/MX2 cells; format: cell-based; conditions: MES-SA/MX2, conjugate 5 µM, 3 h, flow cytometry, n = 3
MDA-MB-231 cells [6] = assay: FACS cellular uptake with endocytosis inhibitors in MDA-MB-231 cells; format: cell-based, human; conditions: MDA-MB-231, conjugate 5 µM, 3 h, flow cytometry, n = 3
Procedure: A flow cytometry study was conducted in the presence of endocytosis inhibitors such as nystatin, chlorpromazine, chloroquine, and methyl β-cyclodextrin to determine whether the cellular uptake for the peptide-Dox was endocytosis-dependent. MDA-MB-231 (5 × 10^5 cells/well) were seeded in the medium 24 h prior to the experiment in six well plates, and after 24 h the medium was changed with opti-MEM. […] The cells were then incubated with [(WR)8WKβA]-Dox conjugate (5 µM) in the presence of inhibitors for 3 h. After 3 h incubation, the media containing the compounds were removed. Next, the cells were digested with 0.05% trypsin/EDTA (0.53 mM) for 5 min to remove any artificial surface binding, centrifuged at 2500 RPM for 5 min with Fisher Scientific accuSpin Micro 17, and then collected as the precipitant. Then the cells were washed two times with PBS, resuspended in flow cytometry buffer, and transferred to the flow cytometry tubes through the 35 µm Strainer Mesh cap. Finally, the cells were analyzed by flow cytometry (FACSCalibur: Becton Dickinson, San Jose, CA, USA) using the Propidium Iodide channel and CellQuest software. The data presented were based on the mean fluorescence intensity for 10,000 cells collected. All assays were performed in triplicate.

SK-OV-3 cells [7] = assay: Confocal microscopy uptake and retention in SK-OV-3 cells; format: cell-based, human; conditions: SK-OV-3, 5 μM, 3 h then 24 h in media
Procedure: as §2, with “The cells were treated with Dox and peptide-Dox conjugate (5 μM) in opti-MEM for 24 h.” left out

MES-SA/MX2 cells [8] = assay: Confocal microscopy internalization in MES-SA/MX2 cells; format: cell-based; conditions: MES-SA/MX2, 5 μM, 24 h
Procedure: as §2

MDA-MB-231 cells [9] = assay: Differential nuclear and cytoplasmic extraction of Dox, HPLC; format: cell-based, human; conditions: 50 μM, 4 h exposure, MDA-MB-231, nuclear extract, HPLC at 490 nm
Procedure: In order to confirm nuclear delivery of peptide-conjugated Dox, in addition to confocal microscopy, we performed a differential nuclear and cytoplasmic extraction. […] The cells were then pelleted at 2000 rpm for 5 min. After removing the supernatant, the cells were resuspended in Dounce buffer containing protease inhibitors. The cell suspension to be used was incubated on ice for 15 min before being spiked with cold 10% NP-40 and vortexed for 10 s. The suspension was centrifuged at 10,000 rpm for 10 min at 4 °C to pellet the nuclei. The supernatant was isolated for cytoplasmic extraction. The nuclear pellet was washed in cold PBS twice and centrifuged to remove the supernatant. The isolated nuclei were then lysed using RIPA buffer containing protease inhibitors. The nuclear and cytoplasmic extractions were analyzed by analytical HPLC to differentially quantify free Dox (or Dox released from the conjugates) and peptide-conjugate Dox using an Agilent Zorbax SB-C18 (4.6 × 150 mm) column. The column was equilibrated with 0.1% TFA-water (solvent A). The elution was performed at a flow rate of 1 mL/min using a gradient of acetonitrile from 0 to 35% in 50 min, with the absorbance measured at 490 nm.

in vitro = conditions: human, 25% human serum
Procedure: Human serum (250 μL) was diluted by adding sterile water (650 μL) and conjugate stock solution (100 μL) to give a sample with 25% human serum and 5 μM conjugate. The sample was kept at 37 °C in an incubator to mimic human body temperature. At regular time intervals, aliquots (100 μL) were taken and diluted with methanol (200 μL). After centrifugation (7000 RPM) of the mixture for 10 min, the supernatant was analyzed by analytical HPLC at 495 nm, and the major HPLC peaks were analyzed by mass spectrometry. The mobile phase used was acetonitrile/water with 0.1% TFA, with a gradient of 20–45% and a flow rate of 1 mL/min in 50 min. The percentage of intact conjugate and the release of the free drug were plotted against incubation time. The AUC obtained after each run was used to confirm the conjugate’s degradation, and t1/2 (the time needed to hydrolyze half of the initial conjugate in human serum) was calculated from the graph plotted as AUC versus incubation time.

H9C2 myocardium cells = conditions: 24 h, MTS, n = 3
Procedure: The cells were seeded in a complete growth medium 24 h prior to the experiment. […] The incubation was continued for 3 h.

[10] = molecular transporter of fluorescence-labeled phosphopeptide; cited from earlier work
Excerpt: Recently, we have reported amphiphilic cyclic CPPs composed of increasing numbers of W and R residues [WR]6–9, and compared their efficiency with the previously published cyclic [WR]5 in improving the cellular uptake of cell-impermeable compounds and their molecular transporter efficiency.

[11] = chlorpromazine 30 μM, methyl-β-cyclodextrin 2.5 mM

## COc1cccc2c1C(=O)c1c(O)c3c(c(O)c1C2=O)C[C@@](O)(C(=O)CO)C[C@@H]3O[C@H]1C[C@H](N)[C@H](O)[C@H](C)O1 [Dox, Doxorubicin]
MDA-MB-231 cells [1]; 24 h
  MDA-MB-231 cell viability: 79%
MDA-MB-231 cells [1]; 5 μM, 72 h
  inhibition of MDA-MB-231 cell viability / proliferation: 63%
MDA-MB-231 cells [1]; 72 h
  MDA-MB-231 cell viability: 37%
SK-OV-3 cells [2]
  reduction of SK-OV-3 cell viability: 35%
[3]
  IC50: 65 ± 7 µM
MCF-7 cells; 5 µM, 24 h
  reduction of MCF-7 cell proliferation: 21%
MCF-7 cells; 5 µM, 72 h
  reduction of MCF-7 cell proliferation: 57%
H9C2 cells
  uptake in heart cells by confocal microscopy: high uptake
MES-SA/MX2 cells [4]; 5 μM, 72 h
  inhibition of MES-SA/MX2 cell viability / proliferation: 15%
MES-SA/MX2 cells [4]; 1, 5, 10 or 20 µM
  efficiency of free Dox against MES-SA/MX2: did not show significant efficiency

## COc1cccc2c1C(=O)c1c(O)c3c(c(O)c1C2=O)C[C@@](O)(C(=O)COC(=O)CCCC(=O)NCCC(=O)NCCCC[C@@H]1NC(=O)[C@H](Cc2c[nH]c4ccccc24)NC(=O)[C@H](CCCNC(=N)N)NC(=O)[C@H](Cc2c[nH]c4ccccc24)NC(=O)[C@H](CCCNC(=N)N)NC(=O)[C@H](Cc2c[nH]c4ccccc24)NC(=O)[C@H](CCCNC(=N)N)NC(=O)[C@H](Cc2c[nH]c4ccccc24)NC(=O)[C@H](CCCNC(=N)N)NC(=O)[C@H](Cc2c[nH]c4ccccc24)NC(=O)[C@H](CCCNC(=N)N)NC(=O)[C@H](Cc2c[nH]c4ccccc24)NC(=O)[C@H](CCCNC(=N)N)NC(=O)[C@H](Cc2c[nH]c4ccccc24)NC(=O)[C@H](CCCNC(=N)N)NC(=O)[C@H](Cc2c[nH]c4ccccc24)NC(=O)[C@H](CCCNC(=N)N)NC(=O)[C@H](Cc2c[nH]c4ccccc24)NC1=O)C[C@@H]3O[C@H]1C[C@H](N)[C@H](O)[C@H](C)O1 [[(WR)8WKβA]-Dox conjugate] (HELM PEPTIDE1{K.W.R.W.R.W.R.W.R.W.R.W.R.W.R.W.R.W}|PEPTIDE2{[COc1cccc2c1C(=O)c1c(O)c3c(c(O)c1C2=O)C[C@@](O)(C(=O)COC(=O)CCCC(=O)[*:2])C[C@@H]3O[C@H]1C[C@H](N)[C@H](O)[C@H](C)O1].[bAla]}$PEPTIDE1,PEPTIDE2,1:R3-2:R2|PEPTIDE1,PEPTIDE1,1:R1-18:R2$$$V2.0)
CCRF-CEM cells; within 12 h
  free Dox released intracellularly: More than 36%
CCRF-CEM cells; within 72 h
  free Dox released intracellularly: approximately 100%
MES-SA/MX2 cells [5]; [11]
  uptake reduction in presence of chlorpromazine and methyl-β-cyclodextrin: statistically significant
MES-SA/MX2 cells [5]; nystatin 50 μg/mL, chloroquine 100 μM
  cellular uptake in presence of nystatin and chloroquine: not reduced significantly
MCF-7 cells; 1 µM, 24 h
  reduction of MCF-7 cell proliferation: 28%
MCF-7 cells; 1 µM, 72 h
  reduction of MCF-7 cell proliferation: 70%
MCF-7 cells; 5 µM, 24 h
  reduction of MCF-7 cell proliferation: 55%
MCF-7 cells; 10 µM, 24 h
  reduction of MCF-7 cell proliferation: 56%
MCF-7 cells; 10 µM, 72 h
  reduction of MCF-7 cell proliferation: 77%
MDA-MB-231 cells [6]; [11]
  cellular uptake in presence of chlorpromazine and methyl-β-cyclodextrin: slight uptake reduction
MDA-MB-231 cells [6]; nystatin 50 μg/mL, chloroquine 100 μM, 30 min preincubation
  cellular uptake in presence of nystatin and chloroquine: not reduced significantly
H9C2 cells
  uptake in heart cells by confocal microscopy: did not show any significant uptake
SK-OV-3 cells [7]
  cellular uptake, retention and localization of Dox: increased the cellular uptake and retention of Dox
MES-SA/MX2 cells [8]
  internalization into resistant cells overexpressing P-gp: internalized
MDA-MB-231 cells [9]
  total concentration of Dox (conjugated and released) in the nucleus: higher than free Dox
In vitro
  metabolised at 1 h, 5 µM: 7%
  metabolised at 6 h, 5 µM: ~50%
  metabolised at 12 h, 5 µM: > 80%
  remaining at 24 h, 5 µM: 6%
H9C2 myocardium cells; 10 µM
  cytotoxicity in rat H9C2 myocardium cells: comparable to Dox
H9C2 myocardium cells; 1 and 5 µM
  cytotoxicity in rat H9C2 myocardium cells: no significant cytotoxicity

## N=C(N)NCCC[C@@H]1NC(=O)[C@H](Cc2c[nH]c3ccccc23)NC(=O)[C@H](CCCNC(=N)N)NC(=O)[C@H](Cc2c[nH]c3ccccc23)NC(=O)[C@H](CCCNC(=N)N)NC(=O)[C@H](Cc2c[nH]c3ccccc23)NC(=O)[C@H](CCCNC(=N)N)NC(=O)[C@H](Cc2c[nH]c3ccccc23)NC(=O)[C@H](CCCNC(=N)N)NC(=O)[C@H](Cc2c[nH]c3ccccc23)NC(=O)[C@H](CCCNC(=N)N)NC(=O)[C@H](Cc2c[nH]c3ccccc23)NC(=O)[C@H](CCCNC(=N)N)NC(=O)[C@H](Cc2c[nH]c3ccccc23)NC(=O)[C@H](CCCNC(=N)N)NC(=O)[C@H](Cc2c[nH]c3ccccc23)NC(=O)[C@H](CCCNC(=N)N)NC(=O)[C@H](Cc2c[nH]c3ccccc23)NC1=O [[WR]9] (HELM PEPTIDE1{R.W.R.W.R.W.R.W.R.W.R.W.R.W.R.W.R.W}$PEPTIDE1,PEPTIDE1,1:R1-18:R2$$$V2.0)
MCF-7 cells; different concentrations (1, 5, 10 μM)
  effect of [WR]9 alone on MCF-7 cell survival: no significant effect on cell survival
MES-SA/MX2 cells [4]; 24 and 72 h
  antiproliferative effect of [WR]9 alone on MES-SA/MX2: no significant antiproliferative effect
[10]
  enhancement of cellular uptake of F′-GpYEEI: 20 fold

Reference: PMC8774489, “[(WR)8WKβA]-Doxorubicin Conjugate: A Delivery System to Overcome Multi-Drug Resistance against Doxorubicin” (Cells, 2022)
